Assay results reported in patent US20240226125A1, “USE OF SOTAGLIFLOZIN FOR THE TREATMENT OF PATIENTS WITH TYPE 1 DIABETES MELLITUS” (priority 2019, published 2024).

What was measured:
[1] = test system: adult patients with Type 1 Diabetes Mellitus who have inadequate glycemic control with insulin therapy; test: inTandem 1 and inTandem 2 pooled double-blind placebo-controlled clinical studies, efficacy; type: in vivo, human; settings: for HbA1c change from Baseline, Week 24 Treatment Comparison, LS Mean / HbA1c change from Baseline, Week 52 Treatment Comparison, LS Mean: optimized insulin
[2] = test system: adult patients diagnosed with T1D who have inadequate glycemic control with insulin therapy; test: inTandem 3 phase 3 randomized double-blind placebo-controlled study; type: in vivo, human; settings: for A1C (%) LS Mean Difference (SE) / Body weight (kg) LS Mean Difference (SE) / Fasting plasma glucose (mg/dL) LS Mean Difference (SE) / SBP (mmHg) LS Mean Difference (SE): 400 mg vs placebo; for A1C (%) LS Mean Difference (SE) / Body weight (kg) LS Mean Difference (SE) / Fasting plasma glucose (mg/dL) LS Mean Difference (SE) / SBP (mmHg) LS Mean Difference (SE) / A1C (%) LS Mean change (SE) / Body weight (kg) LS Mean change (SE) / Fasting plasma glucose (mg/dL) LS Mean change (SE) / SBP (mmHg) LS Mean change (SE): InTandem3; for A1C (%) LS Mean change (SE) / Body weight (kg) LS Mean change (SE) / Fasting plasma glucose (mg/dL) LS Mean change (SE) / SBP (mmHg) LS Mean change (SE): 400 mg
[3] = test system: patients with type 1 diabetes; settings: phase II trials; cited from earlier work
[4] = 400 mg, Baseline BMI ≥27 kg/m^2, Week 24
[5] = 400 mg, Baseline BMI ≥27 kg/m^2, Week 52
[6] = Baseline BMI <27 kg/m^2, Week 24
[7] = Baseline BMI ≥27 kg/m^2, Week 24
[8] = Sotagliflozin 400 mg vs placebo, Week 24
[9] = Sotagliflozin 400 mg, Week 16, SBP ≥130 mm Hg at baseline
[10] = Sotagliflozin 400 mg, Week 24, insulin pump users
[11] = Sotagliflozin 400 mg, Week 24, nonpump users

CCOc1ccc(Cc2cc([C@@H]3O[C@H](SC)[C@@H](O)[C@H](O)[C@H]3O)ccc2Cl)cc1 [sotagliflozin, (2S,3R,4R,5S,6R)-2-(4-chloro-3-(4-ethoxybenzyl)phenyl)-6-(methylthio)tetrahydro-2H-pyran-3,4,5-triol]
SBP (mmHg) LS Mean change (SE) ([1]; 400 mg, Baseline BMI <27 kg/m^2, Week 52): −1.0 (0.81) mmHg | 2-hour postprandial plasma glucose (mg/dL) LS Mean change (SE) [1, 4]: −39.5 (10.72) mg/dL | A1C (%) LS Mean change (SE) [1, 4]: −0.50 (0.034) % | Body weight (kg) LS Mean change (SE) [1, 4]: −2.98 (0.193) kg | DDS2 (score) LS Mean change (SE) [1, 4]: −0.5 (0.10) score | DTSQ (score) LS Mean change (SE) [1, 4]: 2.2 (0.26) score | Fasting plasma glucose (mg/dL) LS Mean change (SE) [1, 4]: −18.6 (3.28) mg/dL | SBP (mmHg) LS Mean change (SE) [1, 4]: −4.0 (0.64) mmHg | Time in range (%) LS Mean change (SE) [1, 4]: 13.133 (2.0244) % | A1C (%) LS Mean change (SE) [1, 5]: −0.38 (0.040) % | Body weight (kg) LS Mean change (SE) [1, 5]: −3.61 (0.249) kg | SBP (mmHg) LS Mean change (SE) [1, 5]: −3.2 (0.65) mmHg | Weight, Percent Change from Baseline at Week 24, Treatment Comparison vs. PBO LS Mean (SE) ([1]; SOTA 200 mg vs PBO, Week 24): −2.17 (0.188), p < 0.001% | HbA1c change from Baseline, Week 24 Treatment Comparison, LS Mean ([1]; SOTA 200 mg vs PBO, Week 24): −0.36% | No Weight Gain at Week 52, HbA1c <7.0%: Absolute difference in % (SOTA vs. PBO) ([1]; SOTA 200 mg vs PBO, Week 52): 12.6% | No Weight Gain at Week 52, reduction in HbA1c ≥0.5%: Absolute difference in % (SOTA vs. PBO) ([1]; SOTA 200 mg vs PBO, Week 52): 14.9% | Weight, Percent Change from Baseline at Week 52, Treatment Comparison vs. PBO LS Mean (SE) ([1]; SOTA 200 mg vs PBO, Week 52): −3.21 (0.291), p < 0.001% | HbA1c change from Baseline, Week 52 Treatment Comparison, LS Mean ([1]; SOTA 200 mg vs PBO, Week 52): −0.23% | Weight, Percent Change (%) from Baseline at Week 24, LS Mean (SE) ([1]; SOTA 200 mg, Week 24): −1.70 (0.137), p < 0.001% | No Weight Gain at Week 52: Percentage HbA1c <7.0% ([1]; SOTA 200 mg, Week 52): 21.8% | No Weight Gain at Week 52: Percentage with absolute reduction in HbA1c ≥0.5% ([1]; SOTA 200 mg, Week 52): 23.7% | Weight, Percent Change (%) from Baseline at Week 52, LS Mean (SE) ([1]; SOTA 200 mg, Week 52): −2.31 (0.208), p < 0.001% | Weight, Percent Change from Baseline at Week 24, Treatment Comparison vs. PBO LS Mean (SE) ([1]; SOTA 400 mg vs PBO, Week 24): −3.02 (0.188), p < 0.001% | HbA1c change from Baseline, Week 24 Treatment Comparison, LS Mean ([1]; SOTA 400 mg vs PBO, Week 24): −0.38% | No Weight Gain at Week 52, HbA1c <7.0%: Absolute difference in % (SOTA vs. PBO) ([1]; SOTA 400 mg vs PBO, Week 52): 17.0% | No Weight Gain at Week 52, reduction in HbA1c ≥0.5%: Absolute difference in % (SOTA vs. PBO) ([1]; SOTA 400 mg vs PBO, Week 52): 20.0% | Weight, Percent Change from Baseline at Week 52, Treatment Comparison vs. PBO LS Mean (SE) ([1]; SOTA 400 mg vs PBO, Week 52): −4.24 (0.291), p < 0.001% | HbA1c change from Baseline, Week 52 Treatment Comparison, LS Mean ([1]; SOTA 400 mg vs PBO, Week 52): −0.32% | Weight, Percent Change (%) from Baseline at Week 24, LS Mean (SE) ([1]; SOTA 400 mg, Week 24): −2.55 (0.137), p < 0.001% | No Weight Gain at Week 52: Percentage HbA1c <7.0% ([1]; SOTA 400 mg, Week 52): 26.1% | No Weight Gain at Week 52: Percentage with absolute reduction in HbA1c ≥0.5% ([1]; SOTA 400 mg, Week 52): 28.8% | Weight, Percent Change (%) from Baseline at Week 52, LS Mean (SE) ([1]; SOTA 400 mg, Week 52): −3.33 (0.209), p < 0.001% | efficacy of sotagliflozin versus placebo by BMI subgroup ([1]; Week 24, BMI ≥27 kg/m^2 subgroups, A1C, body weight, time in range, DTSQ, DDS2): more pronounced | A1C levels compared to placebo (primary endpoint) ([1]; both doses, after core treatment period and long-term extension period): statistically significant lower A1C levels | primary endpoint (A1C <7.0% at Week 24, no severe hypoglycemia, no DKA) ([2]; 400 mg versus placebo): reached its primary endpoint | A1C (%) LS Mean Difference (SE) [2, 6]: −0.37 (0.068) % | Body weight (kg) LS Mean Difference (SE) [2, 6]: −2.47 (0.213) kg | Fasting plasma glucose (mg/dL) LS Mean Difference (SE) [2, 6]: −21.7 (5.78) mg/dL | SBP (mmHg) LS Mean Difference (SE) [2, 6]: −3.4 (0.92) mmHg | A1C (%) LS Mean Difference (SE) [2, 7]: −0.54 (0.051) % | Body weight (kg) LS Mean Difference (SE) [2, 7]: −3.41 (0.247) kg | Fasting plasma glucose (mg/dL) LS Mean Difference (SE) [2, 7]: −24.3 (4.69) mg/dL | SBP (mmHg) LS Mean Difference (SE) [2, 7]: −3.2 (0.79) mmHg | A1C (%) LS Mean change (SE) [2, 6]: −0.72 (0.051) % | Body weight (kg) LS Mean change (SE) [2, 6]: −1.71 (0.157) kg | Fasting plasma glucose (mg/dL) LS Mean change (SE) [2, 6]: −10.4 (4.30) mg/dL | SBP (mmHg) LS Mean change (SE) [2, 6]: −1.7 (0.69) mmHg | A1C (%) LS Mean change (SE) [2, 7]: −0.86 (0.065) % | Body weight (kg) LS Mean change (SE) [2, 7]: −2.80 (0.277) kg | Fasting plasma glucose (mg/dL) LS Mean change (SE) [2, 7]: −23.5 (6.34) mg/dL | SBP (mmHg) LS Mean change (SE) [2, 7]: −3.8 (1.19) mmHg | efficacy compared to placebo on A1C and body weight in the overweight and obese subgroup ([2]; BMI ≥27 kg/m^2 vs <27 kg/m^2, InTandem 3): more favorable effect | Primary endpoint: Patients achieving glycated hemoglobin <7% without DKA and no severe hypoglycemia, All patients, no. ([2]; Sotagliflozin 400 mg (n = 699), Week 24): 200 | Systolic blood pressure in patients with SBP ≥130 mm Hg at baseline, Week 16 LS mean change, LS mean difference from placebo ([2]; Sotagliflozin 400 mg vs placebo, Week 16, SBP ≥130 mm Hg at baseline): −3.5 ± 1.11 mm Hg | Daily bolus insulin dose, Week 24 LS mean change from baseline ± SE, LS mean difference from placebo [2, 8]: −2.84 ± 0.61 IU/day | Daily bolus insulin dose, Week 24 LS mean percent change from baseline ± SE, LS mean difference from placebo [2, 8]: −12.32 ± 2.98% | Glycated hemoglobin, Week 24 LS mean change from baseline ± SE, LS mean difference from placebo [2, 8]: −0.46 ± 0.04% | Primary endpoint, All patients, LS mean difference from placebo (95% CI) [2, 8]: 13.4% (8.97 to 17.81) | Weight, Week 24 LS mean change from baseline ± SE, LS mean difference from placebo [2, 8]: -2.98 ± 0.166 kg | Primary endpoint, Insulin pump users, LS mean difference from placebo (95% CI) ([2]; Sotagliflozin 400 mg vs placebo, Week 24, insulin pump users): 15.9% (8.58 to 23.38) | Primary endpoint, Nonpump users, LS mean difference from placebo (95% CI) ([2]; Sotagliflozin 400 mg vs placebo, Week 24, nonpump users): 11.8% (6.14 to 17.38) | Systolic blood pressure in patients with SBP ≥130 mm Hg at baseline, Week 16 LS mean change from baseline ± SE [2, 9]: −9.2 ± 0.92 mm Hg | Systolic blood pressure in patients with SBP ≥130 mm Hg at baseline, Week 16 mean ± SD [2, 9]: 131.8 ± 12.02 mm Hg | Daily bolus insulin dose, Week 24 LS mean change from baseline ± SE ([2]; Sotagliflozin 400 mg, Week 24): −3.93 ± 0.47 IU/day | Daily bolus insulin dose, Week 24 LS mean percent change from baseline ± SE ([2]; Sotagliflozin 400 mg, Week 24): −5.71 ± 2.29% | Daily bolus insulin dose, Week 24 mean ± SD ([2]; Sotagliflozin 400 mg, Week 24): 23.90 ± 15.76 IU/day | Glycated hemoglobin, Week 24 LS mean change from baseline ± SE ([2]; Sotagliflozin 400 mg, Week 24): −0.79 ± 0.03% | Glycated hemoglobin, Week 24 mean ± SD ([2]; Sotagliflozin 400 mg, Week 24): 7.41 ± 0.95% | Primary endpoint: Patients achieving glycated hemoglobin <7% without DKA and no severe hypoglycemia, All patients, (%) ([2]; Sotagliflozin 400 mg, Week 24): 28.6% | Weight, Week 24 LS mean change from baseline ± SE ([2]; Sotagliflozin 400 mg, Week 24): -2.21 ± 0.12 kg | Weight, Week 24 mean ± SD ([2]; Sotagliflozin 400 mg, Week 24): 80.19 ± 17.02 kg | Primary endpoint, Insulin pump users, (%) [2, 10]: 32.0% | Primary endpoint, Insulin pump users, no. [2, 10]: 88 | Primary endpoint, Nonpump users, (%) [2, 11]: 26.4% | Primary endpoint, Nonpump users, no. [2, 11]: 112 | glycemic control (reduction in A1C) [3]: significantly improve glycemic control
